Source: ChEMBL document CHEMBL5108027, “An unanticipated discovery of novel naphthalimidopropanediols as potential broad-spectrum antibacterial members” (Eur J Med Chem, 2022)
Converted amounts (≈) assume the structure as drawn.

Key:
Type in all cases: functional
Staphylococcus aureus [1] = experiment: Antibacterial activity against methicillin-resistant Staphylococcus aureus N315 measured by Muller-Hinton broth based microdilution assay
Enterococcus faecalis = experiment: Antibacterial activity against Enterococcus faecalis measured by Muller-Hinton broth based microdilution assay
Staphylococcus aureus [2] = experiment: Antibacterial activity against Staphylococcus aureus measured by Muller-Hinton broth based microdilution assay
Staphylococcus aureus [3] = experiment: Antibacterial activity against Staphylococcus aureus ATCC 25923 measured by Muller-Hinton broth based microdilution assay
Staphylococcus aureus [4] = experiment: Antibacterial activity against Staphylococcus aureus ATCC 29213 measured by Muller-Hinton broth based microdilution assay
Klebsiella pneumoniae = experiment: Antibacterial activity against Klebsiella pneumoniae measured by Muller-Hinton broth based microdilution assay
Escherichia coli [5] = experiment: Antibacterial activity against Escherichia coli measured by Muller-Hinton broth based microdilution assay
Pseudomonas aeruginosa [6] = experiment: Antibacterial activity against Pseudomonas aeruginosa measured by Muller-Hinton broth based microdilution assay
Acinetobacter baumannii = experiment: Antibacterial activity against Acinetobacter baumannii measured by Muller-Hinton broth based microdilution assay
Pseudomonas aeruginosa [7] = experiment: Antibacterial activity against Pseudomonas aeruginosa ATCC 27853 measured by Muller-Hinton broth based microdilution assay
Escherichia coli [8] = experiment: Antibacterial activity against Escherichia coli ATCC 25922 measured by Muller-Hinton broth based microdilution assay

SMILES: O=C1c2cccc3c(N/N=C/c4ccccc4F)ccc(c23)C(=O)N1C(CO)CO
- MIC (Staphylococcus aureus [1]): 32 µg/mL (≈ 78.5 µM)
- MIC (Enterococcus faecalis): 2 µg/mL (≈ 4.91 µM)
- MIC (Staphylococcus aureus [2]): 8 µg/mL (≈ 19.6 µM)
- MIC (Staphylococcus aureus [3]): 64 µg/mL (≈ 157 µM)
- MIC (Staphylococcus aureus [4]): 16 µg/mL (≈ 39.3 µM)
- MIC (Klebsiella pneumoniae): 32 µg/mL (≈ 78.5 µM)
- MIC (Escherichia coli [5]): 32 µg/mL (≈ 78.5 µM)
- MIC (Pseudomonas aeruginosa [6]): 32 µg/mL (≈ 78.5 µM)
- MIC (Acinetobacter baumannii): 64 µg/mL (≈ 157 µM)
- MIC (Pseudomonas aeruginosa [7]): 8 µg/mL (≈ 19.6 µM)
- MIC (Escherichia coli [8]): 32 µg/mL (≈ 78.5 µM)

SMILES: O=C1c2cccc3c(N/N=C/c4ccc(O)cc4O)ccc(c23)C(=O)N1C(CO)CO
- MIC (Staphylococcus aureus [1]): 16 µg/mL (≈ 38 µM)
- MIC (Enterococcus faecalis): 16 µg/mL (≈ 38 µM)
- MIC (Staphylococcus aureus [2]): 16 µg/mL (≈ 38 µM)
- MIC (Staphylococcus aureus [3]): 16 µg/mL (≈ 38 µM)
- MIC (Staphylococcus aureus [4]): 64 µg/mL (≈ 152 µM)
- MIC (Klebsiella pneumoniae): 4 µg/mL (≈ 9.49 µM)
- MIC (Escherichia coli [5]): 64 µg/mL (≈ 152 µM)
- MIC (Pseudomonas aeruginosa [6]): 64 µg/mL (≈ 152 µM)
- MIC (Acinetobacter baumannii): 64 µg/mL (≈ 152 µM)
- MIC (Pseudomonas aeruginosa [7]): 32 µg/mL (≈ 75.9 µM)
- MIC (Escherichia coli [8]): 32 µg/mL (≈ 75.9 µM)

SMILES: CCCCCCCCCCCCn1cc(/C=N/Nc2ccc3c4c(cccc24)C(=O)N(C(CO)CO)C3=O)c2ccccc21
- MIC (Staphylococcus aureus [1]): 64 µg/mL (≈ 107 µM)
- MIC (Enterococcus faecalis): 64 µg/mL (≈ 107 µM)
- MIC (Staphylococcus aureus [2]): 8 µg/mL (≈ 13.4 µM)
- MIC (Staphylococcus aureus [3]): 32 µg/mL (≈ 53.6 µM)
- MIC (Staphylococcus aureus [4]): 64 µg/mL (≈ 107 µM)
- MIC (Klebsiella pneumoniae): 64 µg/mL (≈ 107 µM)
- MIC (Escherichia coli [5]): 32 µg/mL (≈ 53.6 µM)
- MIC (Pseudomonas aeruginosa [6]): 128 µg/mL (≈ 214 µM)
- MIC (Acinetobacter baumannii): 64 µg/mL (≈ 107 µM)
- MIC (Pseudomonas aeruginosa [7]): 32 µg/mL (≈ 53.6 µM)
- MIC (Escherichia coli [8]): 64 µg/mL (≈ 107 µM)

SMILES: O=C1c2cccc3c(N/N=C/c4cc(Cl)ccc4O)ccc(c23)C(=O)N1C(CO)CO
- MIC (Staphylococcus aureus [1]): 1 µg/mL (≈ 2.27 µM)
- MIC (Enterococcus faecalis): 16 µg/mL (≈ 36.4 µM)
- MIC (Staphylococcus aureus [2]): 32 µg/mL (≈ 72.8 µM)
- MIC (Staphylococcus aureus [3]): 2 µg/mL (≈ 4.55 µM)
- MIC (Staphylococcus aureus [4]): 64 µg/mL (≈ 146 µM)
- MIC (Klebsiella pneumoniae): 64 µg/mL (≈ 146 µM)
- MIC (Escherichia coli [5]): 64 µg/mL (≈ 146 µM)
- MIC (Pseudomonas aeruginosa [6]): 2 µg/mL (≈ 4.55 µM)
- MIC (Acinetobacter baumannii): 32 µg/mL (≈ 72.8 µM)
- MIC (Pseudomonas aeruginosa [7]): 32 µg/mL (≈ 72.8 µM)
- MIC (Escherichia coli [8]): 32 µg/mL (≈ 72.8 µM)

SMILES: O=C1c2cccc3c(N/N=C/c4c[nH]c5ccccc45)ccc(c23)C(=O)N1C(CO)CO
- MIC (Staphylococcus aureus [1]): 4 µg/mL (≈ 9.34 µM)
- MIC (Enterococcus faecalis): 64 µg/mL (≈ 149 µM)
- MIC (Staphylococcus aureus [2]): 8 µg/mL (≈ 18.7 µM)
- MIC (Staphylococcus aureus [3]): 8 µg/mL (≈ 18.7 µM)
- MIC (Staphylococcus aureus [4]): 2 µg/mL (≈ 4.67 µM)
- MIC (Klebsiella pneumoniae): 64 µg/mL (≈ 149 µM)
- MIC (Escherichia coli [5]): 64 µg/mL (≈ 149 µM)
- MIC (Pseudomonas aeruginosa [6]): 4 µg/mL (≈ 9.34 µM)
- MIC (Acinetobacter baumannii): 64 µg/mL (≈ 149 µM)
- MIC (Pseudomonas aeruginosa [7]): 32 µg/mL (≈ 74.7 µM)
- MIC (Escherichia coli [8]): 64 µg/mL (≈ 149 µM)

SMILES: CCCCCCCCn1cc(/C=N/Nc2ccc3c4c(cccc24)C(=O)N(C(CO)CO)C3=O)c2ccccc21
- MIC (Staphylococcus aureus [1]): 64 µg/mL (≈ 118 µM)
- MIC (Enterococcus faecalis): 64 µg/mL (≈ 118 µM)
- MIC (Staphylococcus aureus [2]): 32 µg/mL (≈ 59.2 µM)
- MIC (Staphylococcus aureus [3]): 16 µg/mL (≈ 29.6 µM)
- MIC (Staphylococcus aureus [4]): 64 µg/mL (≈ 118 µM)
- MIC (Klebsiella pneumoniae): 16 µg/mL (≈ 29.6 µM)
- MIC (Escherichia coli [5]): 32 µg/mL (≈ 59.2 µM)
- MIC (Pseudomonas aeruginosa [6]): 128 µg/mL (≈ 237 µM)
- MIC (Acinetobacter baumannii): 64 µg/mL (≈ 118 µM)
- MIC (Pseudomonas aeruginosa [7]): 64 µg/mL (≈ 118 µM)
- MIC (Escherichia coli [8]): 128 µg/mL (≈ 237 µM)

SMILES: CCn1cc(/C=N/Nc2ccc3c4c(cccc24)C(=O)N(C(CO)CO)C3=O)c2ccccc21
- MIC (Staphylococcus aureus [1]): 64 µg/mL (≈ 140 µM)
- MIC (Enterococcus faecalis): 32 µg/mL (≈ 70.1 µM)
- MIC (Staphylococcus aureus [2]): 8 µg/mL (≈ 17.5 µM)
- MIC (Staphylococcus aureus [3]): 16 µg/mL (≈ 35 µM)
- MIC (Staphylococcus aureus [4]): 32 µg/mL (≈ 70.1 µM)
- MIC (Klebsiella pneumoniae): 8 µg/mL (≈ 17.5 µM)
- MIC (Escherichia coli [5]): 16 µg/mL (≈ 35 µM)
- MIC (Pseudomonas aeruginosa [6]): 16 µg/mL (≈ 35 µM)
- MIC (Acinetobacter baumannii): 64 µg/mL (≈ 140 µM)
- MIC (Pseudomonas aeruginosa [7]): 32 µg/mL (≈ 70.1 µM)
- MIC (Escherichia coli [8]): 32 µg/mL (≈ 70.1 µM)

SMILES: CCCCCCCCCCn1cc(/C=N/Nc2ccc3c4c(cccc24)C(=O)N(C(CO)CO)C3=O)c2ccccc21
- MIC (Staphylococcus aureus [1]): 64 µg/mL (≈ 113 µM)
- MIC (Enterococcus faecalis): 64 µg/mL (≈ 113 µM)
- MIC (Staphylococcus aureus [2]): 16 µg/mL (≈ 28.1 µM)
- MIC (Staphylococcus aureus [3]): 16 µg/mL (≈ 28.1 µM)
- MIC (Staphylococcus aureus [4]): 32 µg/mL (≈ 56.3 µM)
- MIC (Klebsiella pneumoniae): 16 µg/mL (≈ 28.1 µM)
- MIC (Escherichia coli [5]): 32 µg/mL (≈ 56.3 µM)
- MIC (Pseudomonas aeruginosa [6]): 128 µg/mL (≈ 225 µM)
- MIC (Acinetobacter baumannii): 64 µg/mL (≈ 113 µM)
- MIC (Pseudomonas aeruginosa [7]): 32 µg/mL (≈ 56.3 µM)
- MIC (Escherichia coli [8]): 32 µg/mL (≈ 56.3 µM)

SMILES: COc1cc(/C=N/Nc2ccc3c4c(cccc24)C(=O)N(C(CO)CO)C3=O)ccc1O
- MIC (Staphylococcus aureus [1]): 64 µg/mL (≈ 147 µM)
- MIC (Enterococcus faecalis): 8 µg/mL (≈ 18.4 µM)
- MIC (Staphylococcus aureus [2]): 16 µg/mL (≈ 36.7 µM)
- MIC (Staphylococcus aureus [3]): 64 µg/mL (≈ 147 µM)
- MIC (Staphylococcus aureus [4]): 16 µg/mL (≈ 36.7 µM)
- MIC (Klebsiella pneumoniae): 4 µg/mL (≈ 9.19 µM)
- MIC (Escherichia coli [5]): 64 µg/mL (≈ 147 µM)
- MIC (Pseudomonas aeruginosa [6]): 64 µg/mL (≈ 147 µM)
- MIC (Acinetobacter baumannii): 64 µg/mL (≈ 147 µM)
- MIC (Pseudomonas aeruginosa [7]): 8 µg/mL (≈ 18.4 µM)
- MIC (Escherichia coli [8]): 16 µg/mL (≈ 36.7 µM)

SMILES: O=C1c2cccc3c(N/N=C/c4ccccc4Cl)ccc(c23)C(=O)N1C(CO)CO
- MIC (Staphylococcus aureus [1]): 64 µg/mL (≈ 151 µM)
- MIC (Enterococcus faecalis): 64 µg/mL (≈ 151 µM)
- MIC (Staphylococcus aureus [2]): 64 µg/mL (≈ 151 µM)
- MIC (Staphylococcus aureus [3]): 32 µg/mL (≈ 75.5 µM)
- MIC (Staphylococcus aureus [4]): 8 µg/mL (≈ 18.9 µM)
- MIC (Klebsiella pneumoniae): 16 µg/mL (≈ 37.7 µM)
- MIC (Escherichia coli [5]): 128 µg/mL (≈ 302 µM)
- MIC (Pseudomonas aeruginosa [6]): 16 µg/mL (≈ 37.7 µM)
- MIC (Acinetobacter baumannii): 64 µg/mL (≈ 151 µM)
- MIC (Pseudomonas aeruginosa [7]): 32 µg/mL (≈ 75.5 µM)
- MIC (Escherichia coli [8]): 64 µg/mL (≈ 151 µM)

SMILES: O=C1c2cccc3c(N/N=C/c4ccc(OC(F)(F)F)cc4)ccc(c23)C(=O)N1C(CO)CO
- MIC (Staphylococcus aureus [1]): 32 µg/mL (≈ 67.6 µM)
- MIC (Enterococcus faecalis): 2 µg/mL (≈ 4.22 µM)
- MIC (Staphylococcus aureus [2]): 4 µg/mL (≈ 8.45 µM)
- MIC (Staphylococcus aureus [3]): 32 µg/mL (≈ 67.6 µM)
- MIC (Staphylococcus aureus [4]): 4 µg/mL (≈ 8.45 µM)
- MIC (Klebsiella pneumoniae): 2 µg/mL (≈ 4.22 µM)
- MIC (Escherichia coli [5]): 32 µg/mL (≈ 67.6 µM)
- MIC (Pseudomonas aeruginosa [6]): 8 µg/mL (≈ 16.9 µM)
- MIC (Acinetobacter baumannii): 16 µg/mL (≈ 33.8 µM)
- MIC (Pseudomonas aeruginosa [7]): 8 µg/mL (≈ 16.9 µM)
- MIC (Escherichia coli [8]): 32 µg/mL (≈ 67.6 µM)

SMILES: O=C1c2cccc3c(N/N=C/c4ccc(F)cc4)ccc(c23)C(=O)N1C(CO)CO
- MIC (Staphylococcus aureus [1]): 64 µg/mL (≈ 157 µM)
- MIC (Enterococcus faecalis): 64 µg/mL (≈ 157 µM)
- MIC (Staphylococcus aureus [2]): 64 µg/mL (≈ 157 µM)
- MIC (Staphylococcus aureus [3]): 32 µg/mL (≈ 78.5 µM)
- MIC (Staphylococcus aureus [4]): 4 µg/mL (≈ 9.82 µM)
- MIC (Klebsiella pneumoniae): 32 µg/mL (≈ 78.5 µM)
- MIC (Escherichia coli [5]): 64 µg/mL (≈ 157 µM)
- MIC (Pseudomonas aeruginosa [6]): 8 µg/mL (≈ 19.6 µM)
- MIC (Acinetobacter baumannii): 32 µg/mL (≈ 78.5 µM)
- MIC (Pseudomonas aeruginosa [7]): 32 µg/mL (≈ 78.5 µM)
- MIC (Escherichia coli [8]): 64 µg/mL (≈ 157 µM)

SMILES: CN[C@H](CC(C)C)C(=O)N[C@H]1C(=O)N[C@@H](CC(N)=O)C(=O)N[C@H]2C(=O)N[C@H]3C(=O)N[C@H](C(=O)N[C@H](C(=O)O)c4cc(O)cc(O)c4-c4cc3ccc4O)[C@H](O)c3ccc(c(Cl)c3)Oc3cc2cc(c3O[C@@H]2O[C@H](CO)[C@@H](O)[C@H](O)[C@H]2O[C@H]2C[C@](C)(N)[C@H](O)[C@H](C)O2)Oc2ccc(cc2Cl)[C@H]1O [VANCOMYCIN]
- MIC (Enterococcus faecalis): 1 µg/mL (≈ 0.69 µM)

SMILES: O=C(O)c1cn(C2CC2)c2cc(N3CCNCC3)c(F)cc2c1=O [CIPROFLOXACIN]
- MIC (Staphylococcus aureus [1]): 4 µg/mL (≈ 12.1 µM)
- MIC (Enterococcus faecalis): 2 µg/mL (≈ 6.04 µM)
- MIC (Staphylococcus aureus [2]): 2 µg/mL (≈ 6.04 µM)
- MIC (Staphylococcus aureus [3]): 0.5 µg/mL (≈ 1.51 µM)
- MIC (Staphylococcus aureus [4]): 8 µg/mL (≈ 24.1 µM)
- MIC (Klebsiella pneumoniae): 2 µg/mL (≈ 6.04 µM)
- MIC (Acinetobacter baumannii): 2 µg/mL (≈ 6.04 µM)
